Experimental data reported in patent US20240254138A1, “TRICYCLIC PYRIMIDINES AS CYCLIN-DEPENDENT KINASE 7 (CDK7) INHIBITORS” (JANSSEN PHARMACEUTICA NV, priority 2021, published 2024).
Like-named read-outs stand apart in the source and are kept apart here.

Columns and labels:
[1] = test system: RNA Polymerase II Serine 5 phosphorylation (Rpb1 CTD, downstream substrate of CDK7) in A549 cells; test: Imaging-based cellular RNA PolII Ser5 phosphorylation assay in A549 cells; format: cell-based, human; details: Homo sapiens, A549, A549 cells, wild-type CDK7; RNA PolII Ser5 phosphorylation; averaged over all measurements; read-out: CDK7_A549 Wild-type CDK7 (pIC50) (converted)
In short: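 A549 cells, seeded 1000/well in DMEM with 1% FBS and cultured 20 h, were treated with compound for 3 h at 37 °C. Ser5-phospho-Rpb1 CTD detected by immunofluorescence imaging after fixation and methanol permeabilization; IC50 from curve fit normalized to DMSO and 10 μM reference-compound controls.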

[2] = test system: RNA Polymerase II Serine 5 phosphorylation in A549 cells overexpressing CDK7-mutant (C312S); test: Imaging-based cellular RNA PolII Ser5 phosphorylation assay in A549 cells overexpressing CDK7-mutant (C312S); format: cell-based, human; details: Homo sapiens, A549, A549 cells overexpressing CDK7-mutant (C312S); RNA PolII Ser5 phosphorylation; averaged over all measurements; read-out: CDK7_A549 mutant hCDK7(pIC50) (converted)
In short: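 A549 cells overexpressing CDK7 C312S (with endogenous wild-type CDK7) were treated with compound for 3 h at 37 °C in 1% FBS medium. Phospho-Rpb1 CTD Ser5 was immunostained after fixation and imaged. IC50 came from curve fit of % control, normalised to DMSO and 10 μM reference-compound controls.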

[3] = biological target: CDK7/cyclinH/MAT1 trimeric complex (Homo sapiens, UniProt P50613); test: In vitro CDK7 assay, potency of irreversible covalent inhibitors (kinact/KI), coupled PK/LDH ADP readout at 340 nm
[4] = read-out: CDK7 (20 nM enz.) (kobs/[I], M^−1*s^−1), 20 nM enzyme
[5] = CDK7 (20 nM enz.) (KI, μM), 20 nM enzyme
[6] = read-out: CDK7 (20 nM enz.) (kinact, s^−1), 20 nM enzyme
[7] = read-out: CDK7 (20 nM enz.) (kinact/KI, M^−1*s^−1), 20 nM enzyme
[8] = read-out: CDK7 (kinact/KI, M^−1*s^−1), potency of irreversible covalent inhibitors, 1 mM ATP, room temperature, averaged values over all measurements

Chain of CDK7/cyclinH/MAT1 trimeric complex (P50613 whole entry): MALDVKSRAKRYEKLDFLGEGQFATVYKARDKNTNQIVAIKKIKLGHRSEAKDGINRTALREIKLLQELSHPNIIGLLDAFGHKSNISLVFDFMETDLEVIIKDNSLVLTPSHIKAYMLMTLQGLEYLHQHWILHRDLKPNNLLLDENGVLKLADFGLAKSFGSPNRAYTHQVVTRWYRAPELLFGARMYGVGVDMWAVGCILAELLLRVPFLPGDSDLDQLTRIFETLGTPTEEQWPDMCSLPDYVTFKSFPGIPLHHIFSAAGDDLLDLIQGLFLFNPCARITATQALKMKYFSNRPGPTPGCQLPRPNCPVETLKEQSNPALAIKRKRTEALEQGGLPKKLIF
Chain of CDK7/cyclinH/MAT1 trimeric complex (P51946 whole entry partner): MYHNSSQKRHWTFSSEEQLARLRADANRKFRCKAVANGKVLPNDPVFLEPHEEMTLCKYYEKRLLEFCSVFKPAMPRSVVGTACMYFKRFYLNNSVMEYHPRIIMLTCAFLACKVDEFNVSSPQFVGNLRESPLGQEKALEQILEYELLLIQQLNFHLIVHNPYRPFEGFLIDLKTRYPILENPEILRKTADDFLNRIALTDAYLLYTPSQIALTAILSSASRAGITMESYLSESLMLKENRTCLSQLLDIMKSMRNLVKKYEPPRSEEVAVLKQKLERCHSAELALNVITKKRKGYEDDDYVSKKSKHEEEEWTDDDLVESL
Chain of CDK7/cyclinH/MAT1 trimeric complex (P51948 whole entry partner): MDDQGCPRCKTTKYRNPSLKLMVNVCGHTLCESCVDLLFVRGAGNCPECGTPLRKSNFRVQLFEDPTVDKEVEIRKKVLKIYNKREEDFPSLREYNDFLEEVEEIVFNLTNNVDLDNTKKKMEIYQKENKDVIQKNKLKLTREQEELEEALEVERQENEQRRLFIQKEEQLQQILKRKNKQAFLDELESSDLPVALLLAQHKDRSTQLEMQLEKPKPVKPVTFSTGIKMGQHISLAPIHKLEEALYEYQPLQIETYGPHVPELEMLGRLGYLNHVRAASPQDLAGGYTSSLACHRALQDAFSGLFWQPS

Structure (SMILES)	IC50 [1] [nM]	IC50 [2] [nM]	kinact/KI [3, 4] [M⁻¹ s⁻¹]	Ki [3, 5] [µM]	kinact [3, 6] [s⁻¹]	kinact/KI [3, 7] [M⁻¹ s⁻¹]	kinact/KI [3, 8] [M⁻¹ s⁻¹]	Ki ([3]; CDK7 (KI(μM)), […], 1 mM ATP, room temperature, averaged values over all measurements) [µM]	kinact ([3]; read-out: CDK7 (kinact, s^−1), kinact = maximal rate of inactivation, 1 mM ATP, room temperature, averaged values over all measurements) [s⁻¹]
C=CC(=O)N1CCC(N2CCC(c3cc(C)c4c(c3)Nc3nccc(N5CCOCC5)c3CO4)CC2)CC1 [Compound 79]	37.2	5890	766	–	–	–	–	–	–
C=CC(=O)N1CC(N2CCC(c3cc(C)c4c(c3)Nc3nccc(C5=CCS(=O)(=O)CC5)c3CO4)CC2)C1 [Compound 81]	417	> 10000	–	0.067	4.29e-05	640	–	–	–
C=CC(=O)N1CC(N2CC(c3cc4c(c(C)n3)OCc3c(-c5cnn(C)c5)ccnc3N4)C2)C1 [Compound 198]	240	> 10000	–	0.365	4.47e-05	122	–	–	–
C=C(C)C(=O)N1CC(N2CCC(c3cc4c(c(C)n3)OCc3c(-c5cnn(C)c5)ccnc3N4)CC2)C1 [Compound 536]	> 10000	> 10000	–	6.8	–	–	–	–	–
CC#CC(=O)N1CCN(C2CN(c3cc4c(c(C)n3)OCc3c(N5CCOCC5)ccnc3N4)C2)CC1 [Compound 394]	339	> 10000	–	0.313	1.25e-05	39.9	–	–	–
CC#CC(=O)N1CC(N2CC(c3cc(C#N)c4c(c3)Nc3nccc(C5CCOCC5)c3[C@@H](C)O4)C2)C1 (single isomer, unassigned) [Compound 475]	204	7590	–	–	–	351	–	–	–
C=CC(=O)N1CC(N2CCC(c3cc4c(cc3Cl)OCc3c(N5CCOCC5)ccnc3N4)CC2)C1 [Compound 23]	120	> 10000	–	–	–	–	455	–	–
CC#CC(=O)N1CC[C@@H](N2CCC(c3cc4c(c(C)n3)OCc3c(N5CCOCC5)ccnc3N4)CC2)C1 (single isomer, unassigned) [Compound 310]	75.9	> 10000	–	0.115	6.29e-05	547	–	–	–
C=CC(=O)N1CC(N2CCC(c3cc4c(c(-c5ncc[nH]5)c3)OCc3c(N5CCOCC5)ccnc3N4)CC2)C1 [Compound 275]	87.1	> 10000	921	–	–	–	–	–	–
C=CC(=O)N1CCC(N2CC(c3cc(Cl)c4c(c3C)Nc3nccc(C5CCOCC5)c3CO4)C2)CC1 [Compound 86]	1580	> 10000	–	0.397	2.5e-05	63.1	–	–	–
CC#CC(=O)N1CC(N2CC(c3cc4c(c(C)n3)O[C@H](C)c3c(C5CCOCC5)ccnc3N4)C2)C1 (single isomer, unassigned) [Compound 488]	~302	> 10000	–	0.328	4.23e-05	129	–	–	–
C=CC(=O)N1CCC(N2CCN(c3cc4c(c(C)n3)OCc3c(N5CCOCC5)ccnc3N4)CC2)CC1 [Compound 389]	141	> 10000	–	0.0199	2.13e-05	1070	–	–	–
C=CC(=O)N1CC(N2CCC(c3cc(F)c4c(c3)Nc3nccc(N5CCS(=O)(=O)CC5)c3CO4)CC2)C1 [Compound 141]	178	> 10000	–	0.16	8.36e-05	523	–	–	–
C=CC(=O)N1CC(n2cc(-c3cc(C)c4c(c3)Nc3nccc(N5CCOCC5)c3CO4)cn2)C1 [Compound 190]	33.9	~8910	1250	–	–	–	–	–	–
C=CC(=O)N1CC(C#Cc2ccc3c(c2)Nc2nccc(C4CCOCC4)c2CO3)C1 [Compound 33]	603	> 10000	–	–	–	–	1050	0.15	0.000158
C#CCCN(C)C/C=C/C(=O)N1CC(N2CCC(c3ccc4c(c3)Nc3nccc(C5CCOCC5)c3C(C)O4)CC2)C1 (stereo not shown) [Compound 147]	288	> 10000	–	0.0278	5.84e-05	2100	–	–	–
Cc1nc(C2CCN([C@@H]3CCN(C(=O)/C=C/C(=O)O)C3)CC2)cc2c1OCc1c(-c3cnn(C)c3)ccnc1N2 (single isomer, unassigned) [Compound 330]	7240	> 10000	–	4.58	8.82e-05	19.2	–	–	–
